For one compound, Ki results are on record in ChEMBL document CHEMBL3638391, “Flap modulators” (2015).

In this test the target is T1, Arachidonate 5-lipoxygenase-activating protein (Homo sapiens, UniProt P20292).
T1 sequence (P20292 whole entry): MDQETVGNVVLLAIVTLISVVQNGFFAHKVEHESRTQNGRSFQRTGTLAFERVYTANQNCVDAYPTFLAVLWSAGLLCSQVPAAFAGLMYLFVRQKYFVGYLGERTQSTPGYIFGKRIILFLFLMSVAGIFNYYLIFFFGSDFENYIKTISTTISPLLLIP
Nature of the test: Homogeneous Time Resolved Fluorescence Assay: The assay below is used to test the modulatory activity of compounds against FLAP. Human and mouse FLAP-encoding DNA was amplified by polymerase chain reaction and cloned into pFastBacl (Invitrogen) with a NH2-terminal 6-His tag for expression in Spodoptera frugiperda (Sf-9) cells. FLAP-containing membranes were prepared as was a FITC-labeled FLAP ….

Description: Homogeneous Time Resolved Fluorescence Assay: The assay below is used to test the modulatory activity of compounds against FLAP. Human and mouse FLAP-encoding DNA was amplified by polymerase chain reaction and cloned into pFastBacl (Invitrogen) with a NH2-terminal 6-His tag for expression in Spodoptera frugiperda (Sf-9) cells. FLAP-containing membranes were prepared as was a FITC-labeled FLAP modulator [5-[({[2-(2-{3-[3-(tert-Butylsulfanyl)-1-(4-chlorobenzyl)-5-(quinolin-2-ylmethoxy)-1H-indol-2-yl]-2,2-dimethylpropanoyl}hydrazino)-2-oxoethyl]sulfanyl}acetyl)amino]-2-(6-hydroxy-3-oxo-3H-xanthen-9-yl)benzoic acid]. The FLAP binding assay is performed in HTRF format (homogeneous time resolved fluorescence).

As for `C[C@@H]([C@@H](O)c1ccccc1)N(C)S(=O)(=O)c1ccccc1-c1ccc(-c2ccc(N)nc2)c(F)c1`, the inhibition constant Ki worked out at 3.2 nM.
